Reference: US20160264593A1 (priority 2013, published 2016)
“And” between values parts separate entries of the source, which are not always exact repeats. Equal entries are not always repeated. “Also recorded” adds a separate entry of the source.

Test: Pharmacokinetic study of 100 (and metabolite endothal) in SD rats, iv; plasma, liver, brain
Conditions: for Endothal brain concentration / Endothal liver concentration / Endothal plasma concentration / concentration at 0.25 h / concentration at 1 h / concentration at 2 h / concentration at 10 h / concentration at 24 h / concentration at 6 h: SD rats; for AUCINF / AUClast / Cmax / Tmax / concentration at 0.25 h / concentration at 1 h / concentration at 2 h / concentration at 10 h / concentration at 24 h / concentration at 6 h: rat, in vivo, iv; for concentration at 0.25 h / concentration at 1 h / concentration at 2 h / concentration at 10 h / concentration at 24 h / concentration at 6 h: Endothal liver concentration
Protocol: 100 was administrated via iv route at 0.5, 1.0 and 1.5 mg/kg into SD rats. The blood, liver and brain tissue samples were collected at predetermined times from rats.
Twelve (12) female SD rats per group were dosed by iv with 100. The rats were fasted overnight prior to dosing, with free access to water. Foods were withheld for 2 hours post-dose. Blood, liver and brain tissue samples in two animals each group were collected at each time point, within 10% of the scheduled time for each time point. Two extra animals were used for analytic method development. Blood (>0.3 mL) were collected via aorta abdominalis in anaesthetic animalsinto tubes containing heparin at 15 min, 1, 2, 6, 10 and 24 hours after iv administration. Liver and brain tissues were collected immediately after animal death. The liver and brain tissues were excised and rinsed with cold saline to avoid blood residual. Upon collection, each sample was placed on ice and the blood samples were subsequently centrifuged (4° C., 11000 rpm, 5 min) to separate plasma. The obtained plasma, liver and brain tissue samples were stored at −70° C. until LC-MS/MS analysis.
AUC0-∞ (AUC/NF) is the area under the plasma concentration-time curve with last concentration extrapolated based on the elimination rate constant.

[1] = 100 iv 0.5 mg/kg, 24 hr, individual

SMILES: O=C(O)C1C2CCC(O2)C1C(=O)O (stereo not shown) [Endothal, 7-oxabicyclo[2.2.1]heptane-2,3-dicarboxylic acid]
- Endothal brain concentration (100 iv 0.5 mg/kg, 0.25 hr, individual): BLQ
- Endothal liver concentration (100 iv 0.5 mg/kg, 0.25 hr, individual, 0.5 mg/kg): 382 ng/g
- Endothal brain concentration (100 iv 0.5 mg/kg, 0.25 hr, mean): BLQ
- Endothal brain concentration (100 iv 0.5 mg/kg, 1 hr, individual): BLQ
- Endothal liver concentration (100 iv 0.5 mg/kg, 1 hr, individual, 0.5 mg/kg): 131 ng/g
- Endothal brain concentration (100 iv 0.5 mg/kg, 1 hr, mean): BLQ
- Endothal brain concentration (100 iv 0.5 mg/kg, 2 hr, individual): BLQ
- Endothal liver concentration (100 iv 0.5 mg/kg, 2 hr, individual, 0.5 mg/kg): 273 ng/g
- Endothal brain concentration (100 iv 0.5 mg/kg, 2 hr, mean): BLQ
- Endothal brain concentration (100 iv 0.5 mg/kg, 6 hr, individual): BLQ
- Endothal plasma concentration (100 iv 0.5 mg/kg, 6 hr, individual, 0.5 mg/kg): BLQ
- Endothal brain concentration (100 iv 0.5 mg/kg, 6 hr, mean): BLQ
- Endothal brain concentration (100 iv 0.5 mg/kg, 10 hr, individual): BLQ
- Endothal brain concentration (100 iv 0.5 mg/kg, 10 hr, mean): BLQ
- Endothal brain concentration [1]: BLQ
- Endothal plasma concentration [1]: BLQ
- Endothal liver concentration (100 iv 0.5 mg/kg, 24 hr, individual, 0.5 mg/kg): 36.4 ng/g
- Endothal brain concentration (100 iv 0.5 mg/kg, 24 hr, mean): BLQ
- Endothal plasma concentration (100 iv 0.5 mg/kg, 24 hr, mean): BLQ
- Endothal brain concentration (100 iv 1.0 mg/kg, 0.25 hr, individual): BLQ
- Endothal liver concentration (100 iv 1.0 mg/kg, 0.25 hr, individual, 1 mg/kg): 1320 ng/g
- Endothal brain concentration (100 iv 1.0 mg/kg, 0.25 hr, mean): BLQ
- Endothal brain concentration (100 iv 1.0 mg/kg, 1 hr, individual): BLQ
- Endothal liver concentration (100 iv 1.0 mg/kg, 1 hr, individual, 1 mg/kg): 1380 ng/g and 618 ng/g
- Endothal brain concentration (100 iv 1.0 mg/kg, 1 hr, mean): BLQ
- Endothal brain concentration (100 iv 1.0 mg/kg, 2 hr, individual): BLQ
- Endothal liver concentration (100 iv 1.0 mg/kg, 2 hr, individual, 1 mg/kg): 1530 ng/g and 542 ng/g
- Endothal brain concentration (100 iv 1.0 mg/kg, 2 hr, mean): BLQ
- Endothal brain concentration (100 iv 1.0 mg/kg, 6 hr, individual): BLQ
- Endothal liver concentration (100 iv 1.0 mg/kg, 6 hr, individual, 1 mg/kg): 241 ng/g
- Endothal brain concentration (100 iv 1.0 mg/kg, 6 hr, mean): BLQ
- Endothal brain concentration (100 iv 1.0 mg/kg, 10 hr, individual): BLQ
- Endothal liver concentration (100 iv 1.0 mg/kg, 10 hr, individual, 1 mg/kg): 94.2 ng/g
- Endothal brain concentration (100 iv 1.0 mg/kg, 10 hr, mean): BLQ
- Endothal brain concentration (100 iv 1.0 mg/kg, 24 hr, individual): BLQ
- Endothal liver concentration (100 iv 1.0 mg/kg, 24 hr, individual, 1 mg/kg): 115 ng/g
- Endothal brain concentration (100 iv 1.0 mg/kg, 24 hr, mean): BLQ
- Endothal brain concentration (100 iv 1.5 mg/kg, 0.25 hr, individual): BLQ
- Endothal liver concentration (100 iv 1.5 mg/kg, 0.25 hr, individual, 1.5 mg/kg): 2160 ng/g
- Endothal brain concentration (100 iv 1.5 mg/kg, 0.25 hr, mean): BLQ
- Endothal brain concentration (100 iv 1.5 mg/kg, 1 hr, individual): BLQ
- Endothal liver concentration (100 iv 1.5 mg/kg, 1 hr, individual, 1.5 mg/kg): 2976 ng/g
- Endothal brain concentration (100 iv 1.5 mg/kg, 1 hr, mean): BLQ
- Endothal brain concentration (100 iv 1.5 mg/kg, 2 hr, individual): BLQ
- Endothal liver concentration (100 iv 1.5 mg/kg, 2 hr, individual, 1.5 mg/kg): 2226 ng/g
- Endothal brain concentration (100 iv 1.5 mg/kg, 2 hr, mean): BLQ
- Endothal brain concentration (100 iv 1.5 mg/kg, 6 hr, individual): BLQ
- Endothal liver concentration (100 iv 1.5 mg/kg, 6 hr, individual, 1.5 mg/kg): 1326 ng/g
- Endothal brain concentration (100 iv 1.5 mg/kg, 6 hr, mean): BLQ
- Endothal brain concentration (100 iv 1.5 mg/kg, 10 hr, individual): BLQ
- Endothal liver concentration (100 iv 1.5 mg/kg, 10 hr, individual, 1.5 mg/kg): 137 ng/g and 329 ng/g
- Endothal brain concentration (100 iv 1.5 mg/kg, 10 hr, mean): BLQ
- Endothal brain concentration (100 iv 1.5 mg/kg, 24 hr, individual): BLQ
- Endothal liver concentration (100 iv 1.5 mg/kg, 24 hr, individual, 1.5 mg/kg): 52.1 ng/g
- Endothal brain concentration (100 iv 1.5 mg/kg, 24 hr, mean): BLQ
- endothal detectable in brain samples (after single iv 100 at 0.5, 1.0 and 1.5 mg/kg): not detectable; also recorded: undetectable
- AUCINF (female, SD, 0.5 mg/kg): 828 ng·h/mL
- AUClast (female, SD, 0.5 mg/kg): 546 ng·h/mL
- Cmax (female, SD, 0.5 mg/kg): 577 ng/mL
- Tmax (female, SD, 0.5 mg/kg): 15 min
- concentration at 0.25 h (female, SD, 0.5 mg/kg, 100 iv 0.5 mg/kg, 0.25 hr, individual): 316 ng/g
- concentration at 0.25 h (female, SD, 0.5 mg/kg, 100 iv 0.5 mg/kg, 0.25 hr, mean): 349 ng/g
- concentration at 1 h (female, SD, 0.5 mg/kg, 100 iv 0.5 mg/kg, 1 hr, individual): 256 ng/g
- concentration at 1 h (female, SD, 0.5 mg/kg, 100 iv 0.5 mg/kg, 1 hr, mean): 194 ng/g
- concentration at 2 h (female, SD, 0.5 mg/kg, 100 iv 0.5 mg/kg, 2 hr, individual): 168 ng/g
- concentration at 2 h (female, SD, 0.5 mg/kg, 100 iv 0.5 mg/kg, 2 hr, mean): 220 ng/g
- concentration at 10 h (female, SD, 0.5 mg/kg, 100 iv 0.5 mg/kg, 10 hr, mean): 124 ng/g
- concentration at 24 h (female, SD, 0.5 mg/kg, 100 iv 0.5 mg/kg, 24 hr, individual): 32 ng/g
- concentration at 24 h (female, SD, 0.5 mg/kg, 100 iv 0.5 mg/kg, 24 hr, mean): 34.2 ng/g
- AUCINF (female, SD, 1 mg/kg): 2750 ng·h/mL
- AUClast (female, SD, 1 mg/kg): 2487 ng·h/mL
- Tmax (female, SD, 1 mg/kg): 15 min
- concentration at 0.25 h (female, SD, 1 mg/kg, 100 iv 1.0 mg/kg, 0.25 hr, individual): 768 ng/g
- concentration at 0.25 h (female, SD, 1 mg/kg, 100 iv 1.0 mg/kg, 0.25 hr, mean): 1040 ng/g
- concentration at 1 h (female, SD, 1 mg/kg, 100 iv 1.0 mg/kg, 1 hr, mean): 999 ng/g
- concentration at 2 h (female, SD, 1 mg/kg, 100 iv 1.0 mg/kg, 2 hr, mean): 1040 ng/g
- concentration at 6 h (female, SD, 1 mg/kg, 100 iv 1.0 mg/kg, 6 hr, individual): 298 ng/g
- concentration at 6 h (female, SD, 1 mg/kg, 100 iv 1.0 mg/kg, 6 hr, mean): 270 ng/g
- concentration at 10 h (female, SD, 1 mg/kg, 100 iv 1.0 mg/kg, 10 hr, individual): 151 ng/g
- concentration at 10 h (female, SD, 1 mg/kg, 100 iv 1.0 mg/kg, 10 hr, mean): 123 ng/g
- concentration at 24 h (female, SD, 1 mg/kg, 100 iv 1.0 mg/kg, 24 hr, individual): 66.6 ng/g
- concentration at 24 h (female, SD, 1 mg/kg, 100 iv 1.0 mg/kg, 24 hr, mean): 90.8 ng/g
- AUCINF (female, SD, 1.5 mg/kg): 4730 ng·h/mL
- AUClast (female, SD, 1.5 mg/kg): 4476 ng·h/mL
- Tmax (female, SD, 1.5 mg/kg): 15 min
- concentration at 0.25 h (female, SD, 1.5 mg/kg, 100 iv 1.5 mg/kg, 0.25 hr, individual): 2300 ng/g
- concentration at 0.25 h (female, SD, 1.5 mg/kg, 100 iv 1.5 mg/kg, 0.25 hr, mean): 2230 ng/g
- concentration at 1 h (female, SD, 1.5 mg/kg, 100 iv 1.5 mg/kg, 1 hr, individual): 2870 ng/g
- concentration at 1 h (female, SD, 1.5 mg/kg, 100 iv 1.5 mg/kg, 1 hr, mean): 2920 ng/g
- concentration at 2 h (female, SD, 1.5 mg/kg, 100 iv 1.5 mg/kg, 2 hr, individual): 2950 ng/g
- concentration at 2 h (female, SD, 1.5 mg/kg, 100 iv 1.5 mg/kg, 2 hr, mean): 2590 ng/g
- concentration at 6 h (female, SD, 1.5 mg/kg, 100 iv 1.5 mg/kg, 6 hr, individual): 1690 ng/g
- concentration at 6 h (female, SD, 1.5 mg/kg, 100 iv 1.5 mg/kg, 6 hr, mean): 1510 ng/g
- concentration at 10 h (female, SD, 1.5 mg/kg, 100 iv 1.5 mg/kg, 10 hr, mean): 233 ng/g
- concentration at 24 h (female, SD, 1.5 mg/kg, 100 iv 1.5 mg/kg, 24 hr, individual): 75 ng/g
- concentration at 24 h (female, SD, 1.5 mg/kg, 100 iv 1.5 mg/kg, 24 hr, mean): 63.5 ng/g
- Cmax (female, Sprague-Dawley, 1.5 mg/kg): 349 to 2960 ng/g
- AUCINF (0.5 mg/kg): 3095 ng·h/g
- AUClast (0.5 mg/kg): 2598 ng·h/g
- AUCINF (1 mg/kg): 7370 ng·h/g
- AUClast (1 mg/kg): 6673 ng·h/g
- AUCINF (1.5 mg/kg): 18850 ng·h/g
- AUClast (1.5 mg/kg): 18434 ng·h/g
